# Test results published in publication PMC8191315 (European Journal of Medicinal Chemistry, 2021).
# Biological target: SARS-CoV-2 RdRp (Severe acute respiratory syndrome coronavirus 2, UniProt P0DTD1)
# Format: cell-based
# Settings: 5 μM and 10 μM, HEK293T cells, 24 h, real-time qRT-PCR
row,Compound,levels of viral plus- and minus-strand Gluc RNA
1,"CCOc1ccccc1CN(OC)C(=O)CSc1c[nH]c2cccc(Br)c12 [6d5, N-(2-ethoxybenzyl)-2-((4-bromo-1H-indol-3-yl)thio)-N-methoxyacetamide]",decreased the levels of viral plus- and minus-strand Gluc RNA in a dose-dependent manner
2,"CN(Cc1ccccc1)C(=O)CSc1c[nH]c2ccccc12 [6b5, 2-((1H-indol-3-yl)thio)-N-benzyl-N-methylacetamide]",decreased the levels of viral plus- and minus-strand Gluc RNA in a dose-dependent manner
3,"COc1ccccc1CNC(=O)CSc1c[nH]c2c(-c3ccccc3)cccc12 [6c9, N-(2-methoxybenzyl)-2-((7-phenyl-1H-indol-3-yl)thio)acetamide]",decreased the levels of viral plus- and minus-strand Gluc RNA in a dose-dependent manner
4,"O=C(CSc1c[nH]c2ccccc12)N(Cc1ccccc1)Cc1ccccc1 [6b2, N,N-dibenzyl-2-((1H-indol-3-yl)thio)acetamide]",decreased the levels of viral plus- and minus-strand Gluc RNA in a dose-dependent manner
5,"O=C(CSc1c[nH]c2cccc(Br)c12)N(Cc1ccccc1)Cc1ccccc1 [6d2, N,N-dibenzyl-2-((4-bromo-1H-indol-3-yl)thio)acetamide]",decreased the levels of viral plus- and minus-strand Gluc RNA in a dose-dependent manner
